Among the test systems are IGROV-1; A549; SK-MEL-28; K562; SF-268; A498; M14; HOP-62; MOLT-4; UACC-257; HCC 2998; OVCAR-5; OVCAR-3; RPMI-8226; UACC-62; PC-3; MCF7; MDA-MB-231; MDA-MB-435.
Holding throughout (assay): inhibition of tumour cell growth, NCI panel, 48 h

Each structure is given as a SMILES string.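 Values below derive from 48-hour exposures of cells grown in 96-well plates, with endpoints linearly interpolated between the two concentrations bracketing the appropriate inhibition level. GI50 is the concentration that inhibits growth by half.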 Activity calls are given as the source filed them. No stated cut-off is given here; in the data, active = GI50 up to about 1.1 µM and inactive = higher. A value given as a limit tells only on which side of the number the result lay.

Turning to `Cc1cccc(C)c1NC(=O)C(=O)Nn1c(NN)nc2ccccc2c1=O`, the GI50 with IGROV-1, in the assay on A549, in the assay with SK-MEL-28, in the assay on K562, in the assay with SF-268 and in the assay on A498 was > 100 µM (inactive) throughout. Besides, the GI50 in the assay with M14, in the assay with HOP-62, in the assay on MOLT-4, with UACC-257, in the assay on HCC 2998 and with OVCAR-5 was > 100 µM (inactive) in each case. The GI50 in the assay on OVCAR-3, in the assay with RPMI-8226 and with UACC-62 was > 100 µM (inactive) throughout.

Consider `CC1=C(C(=O)NCc2ccccc2)C(/C=C/c2ccccc2)C(C(=O)NCc2ccccc2)=C(C)N1`, for which the GI50 in the assay with IGROV-1, in the assay on A549, in the assay with SK-MEL-28, with K562, in the assay on SF-268 and in the assay on A498 was > 100 µM (inactive) in each case. The GI50 in the assay with M14, in the assay with HOP-62, in the assay with MOLT-4, in the assay with UACC-257, with HCC 2998 and in the assay on OVCAR-5 was > 100 µM (inactive) in each case. In addition, the GI50 in the assay with OVCAR-3, in the assay with RPMI-8226 and in the assay on UACC-62 was > 100 µM (inactive) throughout.

As for `C=C1C(=O)OC2C/C(C)=C/CC/C(C)=C/CCC3(COC(C)=O)OC3CC12` (configuration not stated), the GI50 in the assay with IGROV-1 is 16.7 µM (inactive); in the assay on A549, 16.4 µM (inactive); in the assay on SK-MEL-28, 11.1 µM (inactive); with K562, 5.68 µM (inactive); in the assay on SF-268 it was 10 µM (inactive); with A498, 13.8 µM (inactive). The GI50 in the assay with M14 was 6.15 µM (inactive); with HOP-62, 18.7 µM (inactive); in the assay with MOLT-4 it was 4.42 µM (inactive); in the assay on UACC-257 it was 15.4 µM (inactive); in the assay with HCC 2998, 8.85 µM (inactive); in the assay on OVCAR-5, 16.5 µM (inactive). Moreover, the figures for the GI50 with OVCAR-3, in the assay with RPMI-8226 and in the assay on UACC-62 were 6.19 µM (inactive), 2.53 µM (inactive) and 11.8 µM (inactive), respectively.

`CCOC(=O)C1C(c2ccc(Cl)cc2Cl)NC(c2ccc(C)cc2)C(C(=O)OC)S1(=O)=O` (configuration not stated): the GI50 in the assay with IGROV-1 was > 100 µM (inactive); in the assay on A549 it was 37.8 µM (inactive); with SK-MEL-28, > 100 µM (inactive); in the assay with K562 it was 13.3 µM (inactive); with SF-268, 72.9 µM (inactive); in the assay with A498, > 100 µM (inactive). Also, the GI50 was > 100 µM (inactive) in the assay on M14; > 100 µM (inactive) with HOP-62; 5.46 µM (inactive) in the assay on MOLT-4; 22.8 µM (inactive) in the assay on UACC-257; > 100 µM (inactive) in the assay with HCC 2998; > 100 µM (inactive) in the assay with OVCAR-5. For the same compound, the figures for the GI50 with OVCAR-3, with RPMI-8226 and in the assay with UACC-62 were > 100 µM (inactive), 74.3 µM (inactive) and 53.1 µM (inactive), respectively.

As to `N#Cc1cccc2c1Nc1ccccc1S2`, the GI50 in the assay with IGROV-1 was 48.9 µM (inactive); in the assay on A549 it was > 100 µM (inactive); with SK-MEL-28 it was > 100 µM (inactive); in the assay on K562, > 100 µM (inactive); in the assay with SF-268, 32.9 µM (inactive); in the assay with A498, > 100 µM (inactive). The GI50 in the assay with M14 is > 100 µM (inactive); in the assay with HOP-62, 43.4 µM (inactive); in the assay with MOLT-4, > 100 µM (inactive); with UACC-257 it was > 100 µM (inactive); in the assay on HCC 2998, > 100 µM (inactive); in the assay on OVCAR-5 it was > 100 µM (inactive). The values for the GI50 in the assay with OVCAR-3, in the assay with RPMI-8226 and in the assay on UACC-62 were > 100 µM (inactive), > 100 µM (inactive) and 60.7 µM (inactive), respectively.

Consider `CC(C)N(C(=O)C12C3C4C1C1C2C3C41C(=O)C(C)(C)C)C(C)C` (configuration not stated), for which the GI50 in the assay on IGROV-1 is > 100 µM (inactive); in the assay on A549, > 100 µM (inactive); in the assay with SK-MEL-28, > 100 µM (inactive); in the assay with K562, 20.8 µM (inactive); in the assay on SF-268, > 100 µM (inactive); with A498, > 100 µM (inactive). For the same compound, the GI50 in the assay on M14 was > 100 µM (inactive); with HOP-62 it was > 100 µM (inactive); with MOLT-4 it was 26.7 µM (inactive); with UACC-257 it was 95.3 µM (inactive); with HCC 2998 it was > 100 µM (inactive); in the assay on OVCAR-5, > 100 µM (inactive). In addition, the GI50 in the assay on OVCAR-3 was > 100 µM (inactive); in the assay on RPMI-8226 it was 31.9 µM (inactive); in the assay with UACC-62, > 100 µM (inactive).

For the compound `COC(=O)C1=C(C)NC2(O)C=CC(=O)C3C(=O)N(c4ccccc4)C(=O)C132` (configuration not stated), the GI50 with PC-3 is > 100 µM (inactive); with IGROV-1 it was > 100 µM (inactive); in the assay on A549, > 100 µM (inactive); in the assay on SK-MEL-28 it was 32.5 µM (inactive); in the assay on K562, 48.2 µM (inactive); in the assay on SF-268 it was > 100 µM (inactive). Further, the GI50 in the assay on A498 was > 100 µM (inactive); in the assay on M14, 43.1 µM (inactive); in the assay on MCF7, > 100 µM (inactive); in the assay with HOP-62, > 100 µM (inactive); in the assay with MOLT-4, 90.6 µM (inactive); in the assay with UACC-257 it was 90.8 µM (inactive). Besides, the GI50 with HCC 2998 was 98.2 µM (inactive); in the assay on MDA-MB-231, > 100 µM (inactive); in the assay on OVCAR-5, 61.2 µM (inactive); in the assay on OVCAR-3 it was 66.1 µM (inactive); in the assay with RPMI-8226, 36.2 µM (inactive); in the assay with UACC-62 it was 97.1 µM (inactive). Further, the GI50 in the assay with MDA-MB-435 is 64.7 µM (inactive).

For the compound `NN/C(=N\S(=O)(=O)c1cc2ccccc2s1)Nc1ccc(Cl)cc1`, the GI50 in the assay with PC-3 is 22.2 µM (inactive); with IGROV-1, 17.3 µM (inactive); in the assay with A549 it was 19.4 µM (inactive); in the assay on SK-MEL-28, 25.1 µM (inactive); in the assay on K562 it was 13.3 µM (inactive); with SF-268 it was 22.8 µM (inactive). Also, the GI50 is 19.9 µM (inactive) in the assay with A498; 20.9 µM (inactive) with M14; 20.2 µM (inactive) in the assay on MCF7; 18.8 µM (inactive) in the assay with HOP-62; 18.9 µM (inactive) in the assay on MOLT-4; 18.5 µM (inactive) in the assay on UACC-257. For the same compound, the GI50 is 20.1 µM (inactive) in the assay with MDA-MB-231; 21.1 µM (inactive) in the assay with OVCAR-5; 18.9 µM (inactive) with OVCAR-3; 16 µM (inactive) in the assay on RPMI-8226; 17.5 µM (inactive) in the assay on UACC-62.

`Cc1ccccc1-n1c(CCl)nc2ccc(Br)cc2c1=O`: the GI50 in the assay on IGROV-1 was 14.3 µM (inactive); with A549, 18.2 µM (inactive); with SK-MEL-28, 17.5 µM (inactive); with K562, 0.354 µM (active); in the assay with SF-268, 3.21 µM (inactive); in the assay with A498 it was 30.1 µM (inactive). Further, the GI50 in the assay on M14 is 0.679 µM (active); in the assay on HOP-62, 23.4 µM (inactive); in the assay with MOLT-4, 19.8 µM (inactive); with UACC-257 it was 14.8 µM (inactive); with HCC 2998, 16.8 µM (inactive); with OVCAR-5, 24.4 µM (inactive). For the same compound, the values for the GI50 in the assay with OVCAR-3, in the assay with RPMI-8226 and in the assay with UACC-62 were 14.2 µM (inactive), 8.36 µM (inactive) and 4.4 µM (inactive), respectively.

In the case of `COc1c(I)c(OC)c2c(c1I)O[C@@H]1OCC[C@H]21`, the GI50 with IGROV-1 was 37.6 µM (inactive); with A549, 34 µM (inactive); in the assay with SK-MEL-28, 34.2 µM (inactive); in the assay on K562, 41.2 µM (inactive); in the assay on A498 it was 28.4 µM (inactive); in the assay on M14, 24.9 µM (inactive). Also, the GI50 in the assay on HOP-62 was 17.4 µM (inactive); in the assay with MOLT-4, 20 µM (inactive); in the assay with UACC-257 it was 26.1 µM (inactive); with HCC 2998 it was 30.5 µM (inactive); with OVCAR-5 it was 41.1 µM (inactive); in the assay with OVCAR-3, 27.7 µM (inactive). Further, the figures for the GI50 in the assay on RPMI-8226 and in the assay with UACC-62 were 19.7 µM (inactive) and 32.5 µM (inactive), respectively.

On to `O=C(NCCCCCCCCCCCCNC(=O)c1cccc2ccccc12)c1cccc2ccccc12`, for which the GI50 with IGROV-1 is > 55.3 µM (inactive); in the assay on A549, > 68.5 µM (inactive); with SK-MEL-28 it was > 100 µM (inactive); with K562 it was > 100 µM (inactive); in the assay on SF-268 it was > 100 µM (inactive); with A498, > 47.9 µM (inactive). The GI50 in the assay with M14 was > 100 µM (inactive); in the assay with HOP-62, 2.98 µM (inactive); with MOLT-4, > 100 µM (inactive); in the assay on UACC-257, > 100 µM (inactive); in the assay on HCC 2998 it was > 100 µM (inactive); in the assay on OVCAR-5 it was > 100 µM (inactive). For the same compound, the GI50 in the assay with OVCAR-3 is > 45.9 µM (inactive); in the assay on RPMI-8226, > 100 µM (inactive); in the assay with UACC-62, > 100 µM (inactive).

Regarding `Cc1cc(Cl)ccc1NC(=O)CCCC(=O)C1C/C(=N/O)CC/C1=N\O` (configuration not stated), the GI50 in the assay on IGROV-1, in the assay on A549, in the assay with SK-MEL-28, in the assay on K562, in the assay on SF-268 and in the assay on A498 was > 100 µM (inactive) in each case. Moreover, the GI50 in the assay with M14, with HOP-62, in the assay with MOLT-4, with UACC-257, with HCC 2998 and with OVCAR-5 was > 100 µM (inactive) each time. For the same compound, the GI50 in the assay with OVCAR-3, with RPMI-8226 and in the assay on UACC-62 was > 100 µM (inactive) each time.

With `COc1cccc(/C=C2\CCCc3ccccc3C2=O)c1`, the GI50 was 16.2 µM (inactive) with PC-3; 17.9 µM (inactive) in the assay on IGROV-1; 23 µM (inactive) with A549; 18.1 µM (inactive) with SK-MEL-28; 16.1 µM (inactive) with K562; 10 µM (inactive) with SF-268. The GI50 was 13 µM (inactive) with M14; 13.6 µM (inactive) in the assay with MCF7; 16.1 µM (inactive) in the assay with HOP-62; 19.4 µM (inactive) in the assay on MOLT-4; 15.2 µM (inactive) in the assay on UACC-257; 13.8 µM (inactive) in the assay with MDA-MB-231. Moreover, the GI50 was 15.3 µM (inactive) with OVCAR-5; 17.1 µM (inactive) in the assay on OVCAR-3; 6.35 µM (inactive) in the assay on RPMI-8226; 12.9 µM (inactive) with UACC-62; 10.1 µM (inactive) with MDA-MB-435.

Values taken from ChEMBL document CHEMBL1201862, “PubChem BioAssay data set” (2004).
